Data set [1] in a line: Absorption and emission spectra of AP site binding probes in ethanol. It is filed as physicochemical. On the procedure: NMR spectra were recorded on a Varian Mercury 300 MHz, a Varian Inova 400, and a Varian Inova 600 MHz spectrometer at room temperature, except where otherwise noted. Chemical shifts for 1H NMR were reported as 6, parts per million, and referenced to CHCl3 at 7.26 ppm or TMS at 0 ppm. Chemical shifts for ^13C NMR were reported as 6 and referenced to the center line of the CDCl3 triplet at 77.0 ppm or CH2Cl2 pentet at 54.0 ppm. Low resolution mass spectra were recorded on a ThermoScientific LCQ Advantage or a Finnigan LCQ Deca mass spectrometer. Fluorescence data were collected on a Varian Cary Eclipse fluorescence spectrophotometer in a quartz cuvette with a 1 cm pathlength or on a Tecan Infinite M200 scanner. Absorbance data were collected on a Varian Cary 50 Bio UV-Visible Spectrophotometer in a quartz cuvette with a 1 cm path length.
To characterize the fluorescent properties, the absorption and emission spectra were collected for all final compounds.

For data set [2], the system named is AP DNA. The data set is described as follows: SSB activity assay, dose-response of AP site binding probes. It is filed as biochemical. The settings on record: 5 pmol AP DNA, FIG. 1. On the procedure:
FIG. 1 illustrates SSB activity assay is used to compare the dose-response of AP site binding probes in 5 pmol of AP DNA. Mean and standard deviation of triplicate samples are shown for each concentration.
The single strand break (SSB) assay was proposed as a quick, facile tool to screen AP site binding probes. Therefore, the assay was performed on novel AP site binding probes described above and the commercially available AP site binding probe, F422. […] The reduced response of F422 and DansylMX may be due in part to the compounds being fairly electron rich near the aminooxy binding moiety. This could lead to a Coulombic repulsion with the DNA phosphate backbone.
SSB activity assays were performed on a 40-mer duplex DNA synthesized by IDT with the sequence:
(§1) SSB Activity Assay Control Reactions

The target in data set [3] is T1, UDG (Escherichia coli, UniProt P12295).
T1 construct: purchased New England BioLabs
T1 sequence (P12295 whole entry): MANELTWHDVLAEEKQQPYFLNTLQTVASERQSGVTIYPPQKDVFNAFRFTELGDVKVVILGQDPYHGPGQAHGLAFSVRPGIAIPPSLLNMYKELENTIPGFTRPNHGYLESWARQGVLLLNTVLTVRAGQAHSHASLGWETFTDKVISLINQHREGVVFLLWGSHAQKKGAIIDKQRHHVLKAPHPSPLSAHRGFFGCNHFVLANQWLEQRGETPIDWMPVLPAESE
In words: SSB activity assay UDG inhibition. It is filed as biochemical. The following applies: UDG 10 min pretreatment vs simultaneous UDG and Cy7MX. On the procedure: FIG. 8 illustrates the evaluation of UDG inhibition by Cy7MX. Time course represents incubation time of U:A DNA before APE addition with UDG alone, 10 minutes UDG pretreatment then Cy7MX, and UDG and Cy7MX without pretreatment.
Method UDG (10 min)+Cy7MX: All samples were prepared in triplicate.
Method UDG+Cy7MX: All samples were prepared in triplicate. […] Samples were incubated at 37° C. in the dark for 2 min, 10 min, 30 min, 60 min, or 180 min.
Method UDG: As in method UDG+Cy7MX except substitute DMSO (2 μL) for Cy7MX.
Likewise, the potential of Cy7MX to inhibit UDG, either through direct interaction with the enzyme or by binding to DNA and blocking the uracil substrate, was tested. To accomplish this, U:A DNA was incubated with UDG for a fixed time prior to addition of Cy7MX (FIG. 8, UDG (10 min)+Cy7MX). In this case, Cy7MX could not interfere with the activity of UDG.

The test system of data set [4] is U:A-paired DNA. In words: SSB activity assay control reactions. It is filed as biochemical. On the procedure: as §1
Samples were prepared in triplicate.
After evaluating the fluorescence properties of Cy7MX, its ability to bind to AP sites was examined We developed an assay using a fluorescently tagged dsDNA (double stranded DNA) oligonucleotide with a single uracil incorporated into the labeled strand (FIG. 5A). A green emitting hexachlorofluorescein (HEX) label was incorporated at the 5′ end of the sense strand in order to avoid overlapping with the NIR fluorecent emission of Cy7MX. We expected that treatment of this oligomer with UDG would generate an AP site and subsequent treatment with APE would produce a single strand break. This break could be visualized by denaturing gel electrophoresis to reveal a 16mer single strand DNA (ssDNA) instead of the 40mer parent (FIG. 5B). However, we hypothesized that if the oligomer were treated with Cy7MX prior to APE treatment, the covalent Cy7MX:AP site lesion would not be recognized by APE as a substrate and no SSB would form.

The subject of data set [5] is AP sites in calf thymus DNA. In words: MX and Cy7MX genomic DNA blocking assay. It is filed as binding. The following applies: not blocked by MX. On the procedure:
FIG. 10 illustrates fluorescence response and MX blocking of Cy7MX. Calf thymus DNA treated with heat and acid for increments of 15 min to give a linear relative number of AP sites. AP DNA was then pretreated with MX (50 mM, +MX) or NaCl (50 mM, −MX) followed by incubation with Cy7MX (0.05 mM). Fluorescence measures show a linear response to Cy7MX when not blocked by MX.
Calf thymus DNA was purchased from Sigma and was reconstituted overnight at 4° C. in either H2O or 500 mM MX (to eliminate basal AP sites) with gentle shaking (1.5 mL water or solution per 5 mg DNA). For samples reconstituted in MX solution, an ethanol precipitation was performed twice before heat and acid treatment (vide infra) then reconstituted in water. The DNA-water solution was aliquoted to 1.5 mL Eppendorf tubes (360 μL) and 10× Citrate buffer (1M NaCl, 100 μM monosodium phosphate, 100 μM monosodium citrate, pH 5.0) was added to a final concentration of 1×. For t=0 min samples, ice-cold 100% EtOH (1.0 mL) was added immediately and the Eppendorf tubes stored at −20° C. […]
To 80 μL aliquots of DNA was added either 10 μL of MX (500 mM, pH 7) or vehicle control (500 mM NaCl). […] Aliquots (125 μL) of the samples were added to a black, clear-bottom 96 well plate (Corning) and analyzed with 700 nm excitation and 790 nm emission. Fluorescence was adjusted to DNA concentration.

A short description of data set [6]: Stability of Cy7MX and Cy7MX-treated samples. It is filed as physicochemical.

Structures are written as SMILES.

For `CCCN1/C(=C/C=C2\CCCC(/C=C/C3=[N+](CCC)c4ccccc4C3(C)C)=C2Oc2ccc(CC(=O)NCCCON)cc2)C(C)(C)c2ccccc21` [Cy7MX, 2-((E)-2-((E)-2-(4-(2-((3-(aminooxy)propyl)amino)-2-oxoethyl)phenoxy)-3-((E)-2-(3,3-dimethyl-1-propylindolin-2-ylidene)ethylidene)cyclohex-1-en-1-yl)vinyl)-3,3-dimethyl-1-propyl-3H-indol-1-ium 2,2,2-trifluoroacetate], in data set [1], the Stokes shift is recorded as 20 nm, the λabs max stood at 770 nm and the λem max is given as 796 nm. Moreover, in data set [2], the “dose-response and overall efficacy in SSB assay” value was “acceptable dose-response and overall efficacy”. For the same molecule, the UDG inhibition entry in data set [3] is “does not inhibit UDG activity”. The “SSB activity of the probe itself” value in data set [4] (U:A-paired DNA treated with Cy7MX alone (no enzymes)) was “no SSB activity”. Further, the SSB activity result in data set [4] (U:A-paired DNA with Cy7MX together with UDG and APE) was “the SSB activity was reduced”. Besides, in data set [5], the “fluorescence intensity versus DNA heat/acid treatment time” value is recorded as “linear relationship”. For the same molecule, the “stability of Cy7MX with MX” value in data set [6] (in the presence of light, MX solutions) is recorded as “decompose Cy7MX rapidly”. Moreover, the “stability of Cy7MX assay samples” value in data set [6] (stored in the dark) is “stable for at least two days”.

The values above are taken from patent US10718028B2, “Fluorescent probes for abasic site detection” (CASE WESTERN RESERVE UIVERSITY, priority 2015, dated 2020).
